Experimental data from ChEMBL document CHEMBL1154336, “The discovery and optimisation of benzazepine sulfonamide and sulfones as potent agonists of the motilin receptor” (Bioorg Med Chem Lett, 2009).
≈ marks a conversion by molar mass, not a printed value.

What was measured:
[1] = target: T1, Growth hormone secretagogue receptor type 1 (Homo sapiens, UniProt Q92847); assay: Agonist activity at human ghrelin receptor; assay type: functional
Motilin receptor = Motilin receptor (Homo sapiens, UniProt O43193); assay: Agonist activity at human recombinant motilin receptor expressed in CHO cells by FLIPR assay; assay type: functional, cell-based
Cytochrome P450 2D6 = Cytochrome P450 2D6 (Homo sapiens, UniProt P10635); assay: Inhibition of human recombinant CYP2D6; assay type: ADME
[2] = target: Voltage-gated inwardly rectifying potassium channel KCNH2 (Homo sapiens, UniProt Q12809); assay: Inhibition of human ERG
D(3) dopamine receptor = D(3) dopamine receptor (Homo sapiens, UniProt P35462); assay: Agonist activity at dopamine D3 receptor; assay type: functional
Cytochrome P450 2C9 = Cytochrome P450 2C9 (Homo sapiens, UniProt P11712); assay: Inhibition of human recombinant CYP2C9; assay type: ADME
Cytochrome P450 2C19 = Cytochrome P450 2C19 (Homo sapiens, UniProt P33261); assay: Inhibition of human recombinant CYP2C19; assay type: ADME
Cytochrome P450 1A2 = target: T2, Cytochrome P450 1A2 (Homo sapiens, UniProt P05177); assay: Inhibition of human recombinant CYP1A2; assay type: ADME
T2 sequence (P05177 whole entry): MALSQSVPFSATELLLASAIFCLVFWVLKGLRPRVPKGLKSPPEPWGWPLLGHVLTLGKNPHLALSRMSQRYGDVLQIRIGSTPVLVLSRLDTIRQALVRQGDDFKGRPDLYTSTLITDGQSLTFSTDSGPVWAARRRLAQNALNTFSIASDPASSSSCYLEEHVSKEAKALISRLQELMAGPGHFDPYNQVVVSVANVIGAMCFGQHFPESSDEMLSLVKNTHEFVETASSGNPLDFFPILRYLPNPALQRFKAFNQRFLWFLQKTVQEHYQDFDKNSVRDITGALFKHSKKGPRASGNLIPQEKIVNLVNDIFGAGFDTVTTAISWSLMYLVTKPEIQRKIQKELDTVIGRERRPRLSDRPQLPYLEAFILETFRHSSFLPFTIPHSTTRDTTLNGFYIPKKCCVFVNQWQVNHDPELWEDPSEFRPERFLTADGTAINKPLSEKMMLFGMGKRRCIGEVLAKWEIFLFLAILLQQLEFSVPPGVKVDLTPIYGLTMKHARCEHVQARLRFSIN

Cytochrome P450 3A4 [3] = target: T3, Cytochrome P450 3A4 (Homo sapiens, UniProt P08684); assay: Inhibition of human recombinant CYP3A4 using 7-{3-(4-phenylpiperazin-1-ylmethyl)benzyl}resorufin as substrate; assay type: ADME
[4] = Aqueous solubility at pH 7.4; assay type: physicochemical
D(2) dopamine receptor = D(2) dopamine receptor (Homo sapiens, UniProt P14416); assay: Agonist activity at dopamine D2 receptor; assay type: functional
Cytochrome P450 3A4 [5] = target: T3, Cytochrome P450 3A4; assay: Inhibition of human recombinant CYP3A4 using diethoxyfluorescein as substrate; assay type: ADME
[6] = target: T1, Growth hormone secretagogue receptor type 1; assay: Intrinsic activity at human ghrelin receptor relative to ghrelin
[7] = Tmax in mouse at 10 mg/kg, po; assay type: ADME, organism-based; design: dose 10 mg/kg, route oral; conditions: in vivo
[8] = Cmax in mouse at 10 mg/kg, po; assay type: ADME, organism-based; design: dose 10 mg/kg, route oral; conditions: in vivo
[9] = Half life in mouse at 10 mg/kg, po; assay type: ADME, organism-based; design: dose 10 mg/kg, route oral; conditions: in vivo
[10] = target: 5-hydroxytryptamine receptor 6 (Homo sapiens, UniProt P50406); assay: Agonist activity at 5HT6 receptor; assay type: functional
Liver microsomes [11] = assay: Intrinsic clearance in human liver microsomes after 30 mins; assay type: ADME, Microsome; conditions: 0.5 h
Liver microsomes [12] = assay: Intrinsic clearance in rat liver microsomes after 30 mins; assay type: ADME, Microsome; conditions: 0.5 h
Stomach [13] = assay: Increase in electric field stimulated contractile response in New Zealand White rabbit gastric antrum at 3 uM after 60 mins; assay type: functional; conditions: Oryctolagus cuniculus, 1 h
Stomach [14] = assay: Increase in electric field stimulated contractile response in New Zealand White rabbit gastric antrum at 1 uM after 60 mins; assay type: functional; conditions: Oryctolagus cuniculus, 1 h

T1 sequence (Q92847 whole entry): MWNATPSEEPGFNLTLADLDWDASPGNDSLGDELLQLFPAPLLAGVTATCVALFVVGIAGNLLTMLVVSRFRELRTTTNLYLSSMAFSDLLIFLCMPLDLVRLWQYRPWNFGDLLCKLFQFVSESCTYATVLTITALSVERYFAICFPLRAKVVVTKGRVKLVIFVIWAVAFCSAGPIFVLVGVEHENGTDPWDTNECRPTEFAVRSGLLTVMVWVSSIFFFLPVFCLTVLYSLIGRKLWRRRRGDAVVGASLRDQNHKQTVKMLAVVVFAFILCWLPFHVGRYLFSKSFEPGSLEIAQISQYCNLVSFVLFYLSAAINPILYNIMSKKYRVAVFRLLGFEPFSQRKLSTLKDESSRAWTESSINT
Chain of Motilin receptor (O43193 whole entry): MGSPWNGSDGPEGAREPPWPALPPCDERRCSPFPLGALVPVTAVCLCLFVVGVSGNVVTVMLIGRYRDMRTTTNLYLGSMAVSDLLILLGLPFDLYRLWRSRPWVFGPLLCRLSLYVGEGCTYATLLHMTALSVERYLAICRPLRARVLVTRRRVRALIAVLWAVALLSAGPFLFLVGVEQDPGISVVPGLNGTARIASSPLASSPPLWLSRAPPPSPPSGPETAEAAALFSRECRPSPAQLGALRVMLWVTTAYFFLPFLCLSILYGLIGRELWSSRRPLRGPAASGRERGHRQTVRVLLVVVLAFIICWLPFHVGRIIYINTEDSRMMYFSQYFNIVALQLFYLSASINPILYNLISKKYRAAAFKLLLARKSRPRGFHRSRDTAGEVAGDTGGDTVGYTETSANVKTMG
Chain of D(2) dopamine receptor (P14416 whole entry): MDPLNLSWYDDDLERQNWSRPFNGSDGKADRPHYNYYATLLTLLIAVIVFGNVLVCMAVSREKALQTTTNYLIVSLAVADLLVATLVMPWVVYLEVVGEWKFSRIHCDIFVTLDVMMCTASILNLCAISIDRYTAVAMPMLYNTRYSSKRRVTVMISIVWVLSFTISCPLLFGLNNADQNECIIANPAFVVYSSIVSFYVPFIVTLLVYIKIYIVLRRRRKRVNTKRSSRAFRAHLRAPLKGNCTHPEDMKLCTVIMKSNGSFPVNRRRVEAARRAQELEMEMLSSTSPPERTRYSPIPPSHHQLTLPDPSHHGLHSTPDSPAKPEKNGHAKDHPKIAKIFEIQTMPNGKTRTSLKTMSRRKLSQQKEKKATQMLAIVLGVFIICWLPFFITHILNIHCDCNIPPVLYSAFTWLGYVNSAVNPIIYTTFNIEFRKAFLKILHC
Chain of 5-hydroxytryptamine receptor 6 (P50406 whole entry): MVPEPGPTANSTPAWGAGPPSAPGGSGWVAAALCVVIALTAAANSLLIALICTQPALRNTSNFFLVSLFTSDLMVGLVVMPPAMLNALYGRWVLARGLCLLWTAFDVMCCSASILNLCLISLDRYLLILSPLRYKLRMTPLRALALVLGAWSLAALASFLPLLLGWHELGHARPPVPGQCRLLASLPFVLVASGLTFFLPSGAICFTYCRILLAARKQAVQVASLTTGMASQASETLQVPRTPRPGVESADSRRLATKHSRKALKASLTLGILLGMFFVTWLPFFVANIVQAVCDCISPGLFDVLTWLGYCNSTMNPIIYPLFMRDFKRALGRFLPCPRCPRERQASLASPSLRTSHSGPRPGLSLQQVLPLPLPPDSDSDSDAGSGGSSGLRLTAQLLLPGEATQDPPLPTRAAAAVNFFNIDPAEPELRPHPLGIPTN
Chain of Cytochrome P450 2C9 (P11712 whole entry): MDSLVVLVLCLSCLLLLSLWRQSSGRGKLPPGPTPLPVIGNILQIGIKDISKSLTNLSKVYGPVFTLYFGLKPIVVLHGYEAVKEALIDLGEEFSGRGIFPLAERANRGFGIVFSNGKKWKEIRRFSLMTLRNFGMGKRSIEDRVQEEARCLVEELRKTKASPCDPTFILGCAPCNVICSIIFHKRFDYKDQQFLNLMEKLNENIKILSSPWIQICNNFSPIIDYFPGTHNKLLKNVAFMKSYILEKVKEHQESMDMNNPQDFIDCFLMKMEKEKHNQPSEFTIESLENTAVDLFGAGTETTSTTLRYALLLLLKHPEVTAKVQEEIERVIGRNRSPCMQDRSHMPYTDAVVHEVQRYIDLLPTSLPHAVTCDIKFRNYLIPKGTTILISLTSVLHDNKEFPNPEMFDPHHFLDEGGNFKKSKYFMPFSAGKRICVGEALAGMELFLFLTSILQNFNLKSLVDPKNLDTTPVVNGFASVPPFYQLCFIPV
Chain of Cytochrome P450 2D6 (P10635 whole entry): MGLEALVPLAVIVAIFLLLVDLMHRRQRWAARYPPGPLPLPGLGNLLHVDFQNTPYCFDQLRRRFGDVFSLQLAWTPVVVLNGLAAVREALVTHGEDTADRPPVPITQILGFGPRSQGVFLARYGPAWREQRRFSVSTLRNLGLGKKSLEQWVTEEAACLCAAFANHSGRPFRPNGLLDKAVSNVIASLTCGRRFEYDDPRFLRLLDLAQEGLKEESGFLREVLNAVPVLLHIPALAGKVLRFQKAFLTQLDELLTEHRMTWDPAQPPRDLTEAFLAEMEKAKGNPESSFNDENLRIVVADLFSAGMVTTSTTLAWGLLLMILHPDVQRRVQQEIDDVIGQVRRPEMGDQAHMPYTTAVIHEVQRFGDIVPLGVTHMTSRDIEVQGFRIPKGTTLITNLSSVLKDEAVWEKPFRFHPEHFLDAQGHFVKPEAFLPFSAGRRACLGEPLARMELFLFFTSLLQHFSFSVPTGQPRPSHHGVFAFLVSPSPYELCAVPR
T3 sequence (P08684 whole entry): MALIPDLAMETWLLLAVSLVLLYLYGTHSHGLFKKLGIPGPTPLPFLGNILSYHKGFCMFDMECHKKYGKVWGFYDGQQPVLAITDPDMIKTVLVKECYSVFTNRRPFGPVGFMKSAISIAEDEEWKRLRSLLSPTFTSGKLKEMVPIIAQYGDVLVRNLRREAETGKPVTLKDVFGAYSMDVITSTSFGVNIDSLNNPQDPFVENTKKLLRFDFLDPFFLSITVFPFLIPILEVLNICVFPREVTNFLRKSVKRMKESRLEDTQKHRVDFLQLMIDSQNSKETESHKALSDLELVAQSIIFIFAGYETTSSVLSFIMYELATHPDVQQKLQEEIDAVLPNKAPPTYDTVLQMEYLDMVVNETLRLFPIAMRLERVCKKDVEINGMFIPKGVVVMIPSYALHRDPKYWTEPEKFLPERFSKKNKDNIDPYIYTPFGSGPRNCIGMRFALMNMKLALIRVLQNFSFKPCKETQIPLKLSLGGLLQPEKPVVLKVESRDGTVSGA
Chain of D(3) dopamine receptor (P35462 whole entry): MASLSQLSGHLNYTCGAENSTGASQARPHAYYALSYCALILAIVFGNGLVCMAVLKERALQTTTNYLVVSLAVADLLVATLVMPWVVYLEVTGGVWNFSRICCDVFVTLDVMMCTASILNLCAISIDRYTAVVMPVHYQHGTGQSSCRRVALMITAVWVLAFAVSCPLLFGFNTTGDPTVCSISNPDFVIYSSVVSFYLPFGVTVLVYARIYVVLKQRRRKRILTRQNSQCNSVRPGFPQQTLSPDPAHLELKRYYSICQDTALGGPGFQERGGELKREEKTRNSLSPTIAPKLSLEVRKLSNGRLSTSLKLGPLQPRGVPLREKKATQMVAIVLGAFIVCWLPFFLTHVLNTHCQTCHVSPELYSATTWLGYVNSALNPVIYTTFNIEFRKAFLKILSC
Chain of Cytochrome P450 2C19 (P33261 whole entry): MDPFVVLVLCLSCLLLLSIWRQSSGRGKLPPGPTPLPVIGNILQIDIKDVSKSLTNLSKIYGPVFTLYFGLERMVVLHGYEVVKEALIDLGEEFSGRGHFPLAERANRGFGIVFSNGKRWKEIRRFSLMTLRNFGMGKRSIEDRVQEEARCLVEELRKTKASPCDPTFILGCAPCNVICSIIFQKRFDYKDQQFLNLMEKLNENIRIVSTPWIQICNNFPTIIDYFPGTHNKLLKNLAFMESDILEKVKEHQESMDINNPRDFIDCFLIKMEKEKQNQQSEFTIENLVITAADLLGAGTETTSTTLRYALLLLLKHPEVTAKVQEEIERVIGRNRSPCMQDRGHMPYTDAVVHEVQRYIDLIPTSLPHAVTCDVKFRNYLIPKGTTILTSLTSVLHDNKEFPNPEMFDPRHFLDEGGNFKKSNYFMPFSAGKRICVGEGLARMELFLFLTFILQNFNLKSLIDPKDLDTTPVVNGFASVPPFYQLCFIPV

SMILES | EC50 [1] [nM] | EC50 (Motilin receptor) [nM] | IC50 (Cytochrome P450 2D6) [nM] | other results
CCCCc1ccc(S(=O)(=O)Nc2ccc3c(c2)CCN(Cc2ccn[nH]2)CC3)cc1 | 79.4 | 2.51 | < 100 | IC50 [2]: 2510 nM; Ki (D(3) dopamine receptor): 3.98 nM; IC50 (Cytochrome P450 2C9): 600 nM; IC50 (Cytochrome P450 2C19): 8800 nM; IC50 (Cytochrome P450 1A2): 29000 nM; IC50 (Cytochrome P450 3A4 [3]): 1900 nM; solubility [4]: 10000 µg/mL (≈ 22.8 mM); Ki (D(2) dopamine receptor): 100 nM; IC50 (Cytochrome P450 3A4 [5]): 800 nM
CCCCc1ccc(S(=O)(=O)Nc2ccc3c(c2)CCN(Cc2[nH]cnc2C)CC3)cc1 | 3.98 | 3.16 | – | Intrinsic activity [6]: 0.6
CN(Cc1ccc2c(c1)CCNCC2)C(=O)c1ccc(N2CCOCC2)nc1 | – | > 12600 | – | –
O=S(=O)(Nc1ccc2c(c1)CCN(Cc1cc[nH]n1)CC2)c1ccc(N2CCOCC2)nc1 | > 1000 | 6.31 | < 1000 | IC50 [2]: > 15800 nM; Tmax [7]: 2 h; Cmax [8]: 273 ng/mL; half-life [9]: 1.5 h; Ki [10]: 631 nM; Ki (D(3) dopamine receptor): 631 nM; IC50 (Cytochrome P450 2C19): > 8000 nM; IC50 (Cytochrome P450 1A2): > 8000 nM; CL (Liver microsomes [11]): 6.6 mL/min/g; IC50 (Cytochrome P450 3A4 [3]): > 8000 nM; CL (Liver microsomes [12]): 3.8 mL/min/g; solubility [4]: 371 µg/mL (≈ 0.792 mM); Ki (D(2) dopamine receptor): > 3160 nM; IC50 (Cytochrome P450 3A4 [5]): > 8000 nM
CC(C)Oc1ccc(S(=O)(=O)Nc2ccc3c(c2)CCN(Cc2cc[nH]n2)CC3)cc1 | 158 | 3.98 | 1300 | Ki [10]: 200 nM; Ki (D(3) dopamine receptor): 20 nM; Intrinsic activity [6]: 0.6; Ki (D(2) dopamine receptor): 631 nM
O=S(=O)(Nc1ccc2c(c1)CCN(Cc1cc[nH]n1)CC2)c1ccc(-c2ccccn2)s1 | > 10000 | 7.94 | 200 | Ki [10]: 158 nM; Ki (D(3) dopamine receptor): 200 nM; IC50 (Cytochrome P450 2C9): 400 nM; Emax at 3 µM (Stomach [13]): 190%; Ki (D(2) dopamine receptor): > 794 nM
CC(C)S(=O)(=O)Nc1ccc2c(c1)CCN(Cc1ccn[nH]1)CC2 | – | > 12600 | 16000 | –
CN1CCOc2cc(S(=O)(=O)Nc3ccc4c(c3)CCN(Cc3cc[nH]n3)CC4)ccc21 | > 10000 | 31.6 | – | Ki [10]: 15.8 nM; Ki (D(3) dopamine receptor): 631 nM; Ki (D(2) dopamine receptor): > 1000 nM
CCCCc1ccc(S(=O)(=O)Nc2ccc3c(c2)CCN(Cc2cccs2)CC3)cc1 | > 1000 | 2510 | – | –
O=S(=O)(Nc1ccc2c(c1)CCN(Cc1cc[nH]n1)CC2)c1ccc(Cl)cc1 | > 10000 | 794 | – | –
N#Cc1ccc(S(=O)(=O)Nc2ccc3c(c2)CCN(Cc2cc[nH]n2)CC3)cc1 | – | 7940 | 7900 | IC50 (Cytochrome P450 2C9): 2500 nM
CCCCc1ccc(S(=O)(=O)Nc2ccc3c(c2)CCN(C2CCN(C)CC2)CC3)cc1 | – | > 12600 | – | –
Cc1ccc(S(=O)(=O)Nc2ccc3c(c2)CCN(Cc2cc[nH]n2)CC3)cc1Cl | – | – | – | Intrinsic activity [6]: 0.7
CCCCc1ccc(S(=O)(=O)Nc2ccc3c(c2)CCN(CC2CCOC2)CC3)cc1 (centres undefined) | > 1000 | 2000 | – | –
CCCCc1ccc(S(=O)(=O)Nc2ccc3c(c2)CCN(Cc2cccc(NC(C)=O)c2)CC3)cc1 | > 10000 | 501 | – | –

The next lines start with results.

EC50 [1] [nM] | EC50 (Motilin receptor) [nM] | IC50 (Cytochrome P450 2D6) [nM] | SMILES | other results
> 1000 | 501 | 1700 | O=S(=O)(Cc1ccc2c(c1)CCNCC2)c1ccc(Oc2ccc(F)cc2)nc1 | –
> 10000 | 1260 | – | O=S(=O)(Cc1ccc2c(c1)CCNCC2)c1ccc2ccccc2c1 | –
> 1000 | 501 | 16000 | O=S(=O)(Cc1ccc2c(c1)CCNCC2)c1ccc(N2CCOCC2)nc1 | CL (Liver microsomes [11]): < 0.5 mL/min/g; CL (Liver microsomes [12]): < 1 mL/min/g
> 10000 | 20 | < 100 | O=S(=O)(Cc1ccc2c(c1)CCNCC2)c1ccc(-c2ccc(Cl)cc2)cc1 | CL (Liver microsomes [11]): < 1 mL/min/g; CL (Liver microsomes [12]): < 0.5 mL/min/g
– | 1580 | – | O=S(=O)(Nc1ccc2c(c1)CCNCC2)c1ccc(N2CCOCC2)nc1 | –
– | 126 | – | CCCCc1ccc(S(=O)(=O)Cc2ccc3c(c2)CCNCC3)cc1 | –
– | 2510 | – | O=S(=O)(Nc1ccc(N2CCOCC2)nc1)c1ccc2c(c1)CCNCC2 | –
> 1000 | 5.01 | 600 | O=S(=O)(Cc1ccc2c(c1)CCNCC2)c1ccc(-c2ccc(F)cc2)nc1 | CL (Liver microsomes [11]): < 1 mL/min/g; CL (Liver microsomes [12]): < 0.5 mL/min/g; Emax at 1 µM (Stomach [14]): 54%
> 1000 | 25.1 | 100 | O=S(=O)(Cc1ccc2c(c1)CCNCC2)c1ccc(-c2ccc(F)c(F)c2)cc1 | CL (Liver microsomes [11]): 1 mL/min/g; CL (Liver microsomes [12]): 1.1 mL/min/g
> 1000 | 158 | – | N#Cc1ccc(-c2ccc(S(=O)(=O)Cc3ccc4c(c3)CCNCC4)cn2)cc1 | –
